Laboratory results published in US20080280933A1, “BENZIMIDAZOLYL COMPOUNDS” (priority 2006, published 2008).
Like-named read-outs stand apart in the source and are kept apart here.

Molecular target: T1, mGluR2 receptor (metabotropic glutamate receptor 2) (Homo sapiens, UniProt Q14416)
T1 construct: expressed in transfected cells
Assay: mGluR2 Potentiator Screen, FLIPR, EC10-EC20 glutamate challenge
Type: cell-based
Conditions: read-out: EC50
Method in brief: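 HEK cells stably co-expressing mGluR2 and Gα15, kept glutamine-free overnight, were loaded with Fluo-4 plus probenecid and GPT/pyruvate. Compounds (top 10 μM) were added ≥30 min before an EC10–EC20 glutamate challenge. Peak FLIPR fluorescence ratios were curve-fitted, excluding points above maximal effect, with maxima from on-plate standards.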

[1] = mGluR2 potentiator screen, Table 7

T1 sequence (Q14416 19-872, species assumed): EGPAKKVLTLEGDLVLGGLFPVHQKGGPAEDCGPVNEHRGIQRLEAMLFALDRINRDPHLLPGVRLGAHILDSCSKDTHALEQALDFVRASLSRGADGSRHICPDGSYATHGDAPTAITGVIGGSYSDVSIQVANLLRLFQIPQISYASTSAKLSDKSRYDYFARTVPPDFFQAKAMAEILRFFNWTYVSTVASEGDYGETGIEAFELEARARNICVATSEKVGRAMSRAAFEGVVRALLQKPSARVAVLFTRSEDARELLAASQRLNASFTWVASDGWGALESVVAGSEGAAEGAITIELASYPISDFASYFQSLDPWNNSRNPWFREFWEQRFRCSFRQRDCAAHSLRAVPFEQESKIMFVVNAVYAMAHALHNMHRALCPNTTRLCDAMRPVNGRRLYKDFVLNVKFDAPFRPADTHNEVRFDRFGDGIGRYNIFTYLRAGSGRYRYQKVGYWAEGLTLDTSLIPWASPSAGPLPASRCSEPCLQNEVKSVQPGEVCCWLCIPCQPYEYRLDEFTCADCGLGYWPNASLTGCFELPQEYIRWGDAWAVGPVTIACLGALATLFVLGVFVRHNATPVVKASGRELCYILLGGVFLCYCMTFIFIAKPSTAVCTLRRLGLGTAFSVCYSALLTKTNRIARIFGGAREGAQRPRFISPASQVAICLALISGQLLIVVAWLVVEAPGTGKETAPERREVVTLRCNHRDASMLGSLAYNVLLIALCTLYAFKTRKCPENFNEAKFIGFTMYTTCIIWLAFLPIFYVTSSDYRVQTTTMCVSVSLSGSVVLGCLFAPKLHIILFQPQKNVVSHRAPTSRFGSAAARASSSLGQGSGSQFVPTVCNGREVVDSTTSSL

EC50 [1] [nM]	EC50 [nM]	Structure (SMILES)
1550		COCCn1c(CN2CCC(c3cc(Cl)ccc3OCC3CCCCO3)CC2)nc2ccccc21 (stereo not drawn) [compound 218]
216		CCCOc1ccc(Cl)cc1C1CCN(Cc2nc3ccccc3n2C)CC1 [compound 220]
413		CCCOc1ccc(Cl)cc1C1CCN(Cc2nc3ccccc3n2CF)CC1 [compound 221]
248		CCCOc1ccc(Cl)cc1C1CCN(Cc2nc3ccccc3n2CCF)CC1 [compound 222]
233		CCCOc1ccc(Cl)cc1C1CCN(Cc2nc3ccccc3n2CCOC)CC1 [compound 223]
4260		CCOc1ccc(Cl)cc1C1CCN(Cc2nc3ccccc3n2C)CC1 [compound 224]
	999	CCOc1ccc(Cl)cc1C1CCN(Cc2nc3ccccc3n2C2CC2)CC1 [compound 225]
	637	CCOc1ccc(Cl)cc1C1CCN(Cc2nc3ccccc3n2CF)CC1 [compound 226]
	210	CCOc1ccc(Cl)cc1C1CCN(Cc2nc3ccccc3n2CCF)CC1 [compound 227]
	185	CCOc1ccc(Cl)cc1C1CCN(Cc2nc3ccccc3n2CCOC)CC1 [compound 228]
	357	COc1ccc(Cl)cc1C1CCN(Cc2nc3ccccc3n2C2CC2)CC1 [compound 229]
	209	COCCn1c(CN2CCC(c3cc(Cl)ccc3OC)CC2)nc2ccccc21 [compound 230]
	115	COc1ccc(Cl)cc1C1CCN(Cc2nc3ccccc3n2C)CC1 [compound 231]
	396	COc1ccc(Cl)cc1C1CCN(Cc2nc3ccccc3n2CF)CC1 [compound 232]
	264	COc1ccc(Cl)cc1C1CCN(Cc2nc3ccccc3n2CCF)CC1 [compound 233]
	1310	COc1ccc(Cl)cc1C1CCN(Cc2nc3c(Br)cccc3n2C)CC1 [compound 234]
	258	C#CCOc1ccc(Cl)cc1C1CCN(Cc2nc3ccccc3n2C2CC2)CC1 [compound 235]
	74.1	C#CCOc1ccc(Cl)cc1C1CCN(Cc2nc3ccccc3n2CCF)CC1 [compound 236]
	302	C#CCOc1ccc(Cl)cc1C1CCN(Cc2nc3ccccc3n2CF)CC1 [compound 237]
	78.1	C#CCOc1ccc(Cl)cc1C1CCN(Cc2nc3ccccc3n2C)CC1 [compound 238]
	79	C#CCOc1ccc(Cl)cc1C1CCN(Cc2nc3ccccc3n2CCOC)CC1 [compound 239]
	146	COc1ccccc1C1CCN(Cc2nc3ccccc3n2CCF)CC1 [compound 240]
	217	FCCn1c(CN2CCC(c3ccccc3F)CC2)nc2ccccc21 [compound 241]
	301	FCCn1c(CN2CCC(c3ccc(C(F)(F)F)cc3)CC2)nc2ccccc21 [compound 242]

EC50 [1] [nM]	EC50 [nM]	Structure (SMILES)
	1260	FCCn1c(CN2CCC(c3ccccc3C(F)(F)F)CC2)nc2ccccc21 [compound 243]
	484	COc1ccccc1C1CCN(Cc2nc3ccccc3n2C2CC2)CC1 [compound 244]
	3350	FC(F)(F)c1ccccc1C1CCN(Cc2nc3ccccc3n2C2CC2)CC1 [compound 245]
	418	COCCn1c(CN2CCC(c3ccc(C(F)(F)F)cc3)CC2)nc2ccccc21 [compound 246]
	821	FC(F)(F)c1ccc(C2CCN(Cc3nc4ccccc4n3C3CC3)CC2)cc1 [compound 247]
	320	COCCn1c(CN2CCC(c3ccccc3OC)CC2)nc2ccccc21 [compound 248]
	251	COCCn1c(CN2CCC(c3ccccc3F)CC2)nc2ccccc21 [compound 249]
	545	COCCn1c(CN2CCC(c3ccccc3C(F)(F)F)CC2)nc2ccccc21 [compound 250]
	1340	Fc1ccccc1C1CCN(Cc2nc3ccccc3n2C2CC2)CC1 [compound 251]
	225	FCn1c(CN2CCC(c3ccccc3F)CC2)nc2ccccc21 [compound 252]
	116	FCn1c(CN2CCC(c3ccccc3F)CC2)nc2ccccc21 [compound 253]
	62.4	COc1ccccc1C1CCN(Cc2nc3ccccc3n2CF)CC1 [compound 254]
	164	FCn1c(CN2CCC(c3ccc(C(F)(F)F)cc3)CC2)nc2ccccc21 [compound 255]
	422	FCn1c(CN2CCC(c3ccccc3C(F)(F)F)CC2)nc2ccccc21 [compound 256]
	109	Cn1c(CN2CCC(c3ccccc3C(F)(F)F)CC2)nc2ccccc21 [compound 257]
	80.5	COc1ccccc1C1CCN(Cc2nc3cc(F)c(F)cc3n2C)CC1 [compound 258]
	468	Cn1c(CN2CCC(c3ccccc3F)CC2)nc2cc(F)c(F)cc21 [compound 259]
	422	Cn1c(CN2CCC(c3ccc(C(F)(F)F)cc3)CC2)nc2cc(F)c(F)cc21 [compound 260]
	2310	Cn1c(CN2CCC(c3ccccc3C(F)(F)F)CC2)nc2cc(F)c(F)cc21 [compound 261]
	242	COc1ccccc1C1CCN(Cc2nc3cc(Br)ccc3n2C)CC1 [compound 263]
	1440	Cn1c(CN2CCC(c3ccccc3O)CC2)nc2ccccc21 [compound 265]
	3350	COc1ccccc1C1CCN(Cc2nc3c(C#N)cccc3n2C)CC1 [compound 266]
	249	Cc1cccc2c1nc(CN1CCC(c3ccccc3F)CC1)n2C [compound 267]

Continued, compound first:

Structure (SMILES)	EC50 [1] [nM]	EC50 [nM]
CC(C)COc1ccc(Cl)cc1C1CCN(Cc2nc3ccccc3n2C)CC1 [compound 178]	499	
CC(C)COc1ccc(Cl)cc1C1CCN(Cc2nc3ccccc3n2C2CC2)CC1 [compound 179]	1740	
COCCn1c(CN2CCC(c3cc(Cl)ccc3OCC(C)C)CC2)nc2ccccc21 [compound 180]	3020	
CC(C)COc1ccc(Cl)cc1C1CCN(Cc2nc3ccccc3n2CCF)CC1 [compound 181]	2110	
CCCCOc1ccc(Cl)cc1C1CCN(Cc2nc3ccccc3n2CF)CC1 [compound 182]	355	
CCCCOc1ccc(Cl)cc1C1CCN(Cc2nc3ccccc3n2C2CC2)CC1 [compound 183]	1520	
CCCCOc1ccc(Cl)cc1C1CCN(Cc2nc3ccccc3n2CCOC)CC1 [compound 184]	479	
CCCCOc1ccc(Cl)cc1C1CCN(Cc2nc3ccccc3n2C)CC1 [compound 185]	138	
CCCCOc1ccc(Cl)cc1C1CCN(Cc2nc3ccccc3n2CCF)CC1 [compound 186]	246	
Clc1ccc(OCCC2CC2)c(C2CCN(Cc3nc4ccccc4n3C3CC3)CC2)c1 [compound 187]	777	
FCn1c(CN2CCC(c3cc(Cl)ccc3OCCC3CC3)CC2)nc2ccccc21 [compound 188]	566	
Cn1c(CN2CCC(c3cc(Cl)ccc3OCCC3CC3)CC2)nc2ccccc21 [compound 189]	153	
FCCn1c(CN2CCC(c3cc(Cl)ccc3OCCC3CC3)CC2)nc2ccccc21 [compound 190]	141	
COCCn1c(CN2CCC(c3cc(Cl)ccc3OCCC3CC3)CC2)nc2ccccc21 [compound 191]	136	
Clc1ccc(OCC2CCC2)c(C2CCN(Cc3nc4ccccc4n3C3CC3)CC2)c1 [compound 192]	2260	
FCn1c(CN2CCC(c3cc(Cl)ccc3OCC3CCC3)CC2)nc2ccccc21 [compound 193]	2340	
Cn1c(CN2CCC(c3cc(Cl)ccc3OCC3CCC3)CC2)nc2ccccc21 [compound 194]	473	
FCCn1c(CN2CCC(c3cc(Cl)ccc3OCC3CCC3)CC2)nc2ccccc21 [compound 195]	1390	
COCCn1c(CN2CCC(c3cc(Cl)ccc3OCC3CCC3)CC2)nc2ccccc21 [compound 196]	719	
CC1CC1COc1ccc(Cl)cc1C1CCN(Cc2nc3ccccc3n2CF)CC1 (stereo not drawn) [compound 197]	3260	

Structure (SMILES)	EC50 [1] [nM]	EC50 [nM]
CC1CC1COc1ccc(Cl)cc1C1CCN(Cc2nc3ccccc3n2C2CC2)CC1 (stereo not drawn) [compound 198]	2250	
CC1CC1COc1ccc(Cl)cc1C1CCN(Cc2nc3ccccc3n2C)CC1 (stereo not drawn) [compound 199]	390	
CC1CC1COc1ccc(Cl)cc1C1CCN(Cc2nc3ccccc3n2CCF)CC1 (stereo not drawn) [compound 200]	1550	
COCCn1c(CN2CCC(c3cc(Cl)ccc3OCC3CC3C)CC2)nc2ccccc21 (stereo not drawn) [compound 201]	623	
Clc1ccc(OCC2CCOC2)c(C2CCN(Cc3nc4ccccc4n3C3CC3)CC2)c1 (stereo not drawn) [compound 202]	2880	
Cn1c(CN2CCC(c3cc(Cl)ccc3OCC3CCOC3)CC2)nc2ccccc21 (stereo not drawn) [compound 203]	712	
FCn1c(CN2CCC(c3cc(Cl)ccc3OCC3CCOC3)CC2)nc2ccccc21 (stereo not drawn) [compound 204]	3610	
COCCn1c(CN2CCC(c3cc(Cl)ccc3OCC3CCOC3)CC2)nc2ccccc21 (stereo not drawn) [compound 205]	3350	
Clc1ccc(OCC2CCCO2)c(C2CCN(Cc3nc4ccccc4n3C3CC3)CC2)c1 (stereo not drawn) [compound 206]	2600	
Cn1c(CN2CCC(c3cc(Cl)ccc3OCC3CCCO3)CC2)nc2ccccc21 (stereo not drawn) [compound 207]	666	
FCn1c(CN2CCC(c3cc(Cl)ccc3OCC3CCCO3)CC2)nc2ccccc21 (stereo not drawn) [compound 208]	4130	
COCCn1c(CN2CCC(c3cc(Cl)ccc3OCC3CCCO3)CC2)nc2ccccc21 (stereo not drawn) [compound 209]	1700	
FCCn1c(CN2CCC(c3cc(Cl)ccc3OCC3CCCO3)CC2)nc2ccccc21 (stereo not drawn) [compound 210]	1040	
CC1(COc2ccc(Cl)cc2C2CCN(Cc3nc4ccccc4n3CF)CC2)COC1 [compound 211]	8220	
CC1(COc2ccc(Cl)cc2C2CCN(Cc3nc4ccccc4n3CCF)CC2)COC1 [compound 212]	10500	
Clc1ccc(OCC2CCCCO2)c(C2CCN(Cc3nc4ccccc4n3C3CC3)CC2)c1 (stereo not drawn) [compound 214]	2010	
FCn1c(CN2CCC(c3cc(Cl)ccc3OCC3CCCCO3)CC2)nc2ccccc21 (stereo not drawn) [compound 215]	1570	
Cn1c(CN2CCC(c3cc(Cl)ccc3OCC3CCCCO3)CC2)nc2ccccc21 (stereo not drawn) [compound 216]	534	
FCCn1c(CN2CCC(c3cc(Cl)ccc3OCC3CCCCO3)CC2)nc2ccccc21 (stereo not drawn) [compound 217]	1180	
Cn1c(CN2CCC3(CC2)COc2ccccc23)nc2ccccc21 [compound 262]		1170
